The structures appear in SMILES notation. Values joined by “and” are separate entries in the source; they are usually repeats but may differ in a detail not shown here. Equal entries are not always repeated. Where two headings read alike, the source gives them in different places.

Results on 7 molecules are retold here after PMC2820545, “Mechanistic Characterization and Molecular Modeling of Hepatitis B Virus Polymerase Resistance to Entecavir” (PLoS ONE, 2010).

Experiment [1] addresses ETVr HBV polymerases (ETVr signature substitutions in a LVDr background). Put plainly: In vitro HBV polymerase assay, ETVr enzymes as a group. The format is biochemical, hepatitis B virus. From the text: (§1) To provide the data in Tables 1 & 2, intracellular HBV nucleocapsids were isolated from HBV transfected HepG2 cells and used in endogenous polymerase assays (EPA), exactly as previously described in detail. Essentially, clarified, detergent and nuclease-treated HBV-transfected cell lysates were centrifugally sedimented through a 25% wt/vol sucrose cushion. Sedimented nucleocapsids were used in polymerase reactions with [33P]-labeled dNTPs and TCA-precipitable radioactivity was used as an indication of the HBV polymerase activity, as described.
(§2) In order to increase the activity of the EPA reactions, we used nucleocapsids from cells treated with phosphonoformic acid (foscarnet, PFA; Sigma) during culture. […] PFA inhibits synthesis of all HBV DNA forms and both strands of HBV DNA, but not priming, and has a cell culture EC50 of approximately 5 mM for HBV [48].
(§3) The HBV polymerase dNTP Km values were determined from similar assays where the concentration of dNTP was serially diluted from 1000 nM to 0.3 nM. All other dNTPs were used at a fixed concentration equal to the highest test dNTP concentration with one-tenth of the TTP in the form of [α^33P] TTP (3000 Ci/mmol; PerkinElmer, Boston, MA). The apparent Km values were obtained from Lineweaver-Burke plots of the data generated by GraphPad PRISM™ software version 3.0 (San Diego, CA). The Ki values were calculated using the Cheng-Prusoff equation: Ki = IC50/(1+[S]/Km). The enzyme concentration within HBV nucleocapsid preparations was found by determining the level of covalently-linked HBV DNA using quantitative real-time PCR [9] and converting to genome equivalents [1 pg double stranded HBV DNA = 3×10^5 genome equivalents [34]]. The primers were positioned near the 5′ end of minus strand DNA in an attempt to measure all enzymatically active molecules.

Experiment [2] deals with T1, LVDr + T184L HBV polymerase (Hepatitis B virus genotype D subtype ayw, UniProt P03156, L515M/M539V/T519L).
T1 construct: intracellular HBV nucleocapsids were isolated from HBV transfected HepG2 cells and used in endogenous polymerase assays; expressed in transfected cells; host or cells: HepG2 cells transfected with a mutated HBV expression plasmid
T1 sequence (P03156 whole entry L515M/T519L/M539V): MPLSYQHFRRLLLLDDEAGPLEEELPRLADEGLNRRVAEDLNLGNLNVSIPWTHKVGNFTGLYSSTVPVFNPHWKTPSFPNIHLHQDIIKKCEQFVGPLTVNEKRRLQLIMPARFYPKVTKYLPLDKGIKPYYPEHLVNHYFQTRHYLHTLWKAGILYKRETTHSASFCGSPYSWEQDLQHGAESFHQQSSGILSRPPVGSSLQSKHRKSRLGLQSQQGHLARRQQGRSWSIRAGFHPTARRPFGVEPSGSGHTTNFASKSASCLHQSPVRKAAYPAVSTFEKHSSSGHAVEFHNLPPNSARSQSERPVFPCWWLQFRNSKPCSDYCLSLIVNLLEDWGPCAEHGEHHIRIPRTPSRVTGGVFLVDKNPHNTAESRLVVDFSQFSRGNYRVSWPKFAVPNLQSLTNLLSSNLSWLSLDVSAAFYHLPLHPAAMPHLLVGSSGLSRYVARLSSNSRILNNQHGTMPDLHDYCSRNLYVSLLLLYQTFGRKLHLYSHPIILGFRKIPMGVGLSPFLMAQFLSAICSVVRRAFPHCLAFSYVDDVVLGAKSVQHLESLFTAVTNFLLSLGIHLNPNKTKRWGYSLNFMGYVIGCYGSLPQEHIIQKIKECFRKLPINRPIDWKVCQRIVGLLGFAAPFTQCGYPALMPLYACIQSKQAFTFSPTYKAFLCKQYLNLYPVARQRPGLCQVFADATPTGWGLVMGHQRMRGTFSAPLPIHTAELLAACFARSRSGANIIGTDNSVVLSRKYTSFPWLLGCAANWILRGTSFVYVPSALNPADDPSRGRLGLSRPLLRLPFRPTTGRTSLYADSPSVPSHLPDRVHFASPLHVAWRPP
Put plainly: In vitro HBV polymerase assay (endogenous polymerase assay with nucleocapsids). In kind it is biochemical.
Description: as §1, §2, §3

Experiment [3] has as its target T2, LVDr + S202G HBV polymerase (Hepatitis B virus genotype D subtype ayw, UniProt P03156, L515M/M539V/S537G).
T2 construct: intracellular HBV nucleocapsids were isolated from HBV transfected HepG2 cells and used in endogenous polymerase assays; expressed in transfected cells; host or cells: HepG2 cells transfected with a mutated HBV expression plasmid
The description is as above. Particulars: for IC50: In vitro polymerase. In kind it is biochemical.
Description: as §1, §2, §3

Experiment [4] has as its target T3, LVDr + M250V HBV polymerase (Hepatitis B virus genotype D subtype ayw, UniProt P03156, L515M/M539V/M585V).
T3 construct: intracellular HBV nucleocapsids were isolated from HBV transfected HepG2 cells and used in endogenous polymerase assays; expressed in transfected cells; host or cells: HepG2 cells transfected with a mutated HBV expression plasmid
Described as above. The format is biochemical. Conditions: for IC50: In vitro polymerase.
Description: as §1, §2, §3

A further experiment has as its target T4, Wildtype HBV polymerase (Hepatitis B virus genotype D subtype ayw, UniProt P03156).
T4 construct: intracellular HBV nucleocapsids were isolated from HBV transfected HepG2 cells and used in endogenous polymerase assays; expressed in transfected cells; host or cells: HepG2 cells transfected with pCMV-HBV
The description is as above. The format is biochemical.
Description: as §1, §2, §3

The target of experiment [5] is T5, LVDr L180M + M204V HBV polymerase (Hepatitis B virus genotype D subtype ayw, UniProt P03156, L515M/M539V).
T5 construct: intracellular HBV nucleocapsids were isolated from HBV transfected HepG2 cells and used in endogenous polymerase assays; expressed in transfected cells; host or cells: HepG2 cells transfected with a mutated HBV expression plasmid
T5 sequence (P03156 whole entry L515M/M539V): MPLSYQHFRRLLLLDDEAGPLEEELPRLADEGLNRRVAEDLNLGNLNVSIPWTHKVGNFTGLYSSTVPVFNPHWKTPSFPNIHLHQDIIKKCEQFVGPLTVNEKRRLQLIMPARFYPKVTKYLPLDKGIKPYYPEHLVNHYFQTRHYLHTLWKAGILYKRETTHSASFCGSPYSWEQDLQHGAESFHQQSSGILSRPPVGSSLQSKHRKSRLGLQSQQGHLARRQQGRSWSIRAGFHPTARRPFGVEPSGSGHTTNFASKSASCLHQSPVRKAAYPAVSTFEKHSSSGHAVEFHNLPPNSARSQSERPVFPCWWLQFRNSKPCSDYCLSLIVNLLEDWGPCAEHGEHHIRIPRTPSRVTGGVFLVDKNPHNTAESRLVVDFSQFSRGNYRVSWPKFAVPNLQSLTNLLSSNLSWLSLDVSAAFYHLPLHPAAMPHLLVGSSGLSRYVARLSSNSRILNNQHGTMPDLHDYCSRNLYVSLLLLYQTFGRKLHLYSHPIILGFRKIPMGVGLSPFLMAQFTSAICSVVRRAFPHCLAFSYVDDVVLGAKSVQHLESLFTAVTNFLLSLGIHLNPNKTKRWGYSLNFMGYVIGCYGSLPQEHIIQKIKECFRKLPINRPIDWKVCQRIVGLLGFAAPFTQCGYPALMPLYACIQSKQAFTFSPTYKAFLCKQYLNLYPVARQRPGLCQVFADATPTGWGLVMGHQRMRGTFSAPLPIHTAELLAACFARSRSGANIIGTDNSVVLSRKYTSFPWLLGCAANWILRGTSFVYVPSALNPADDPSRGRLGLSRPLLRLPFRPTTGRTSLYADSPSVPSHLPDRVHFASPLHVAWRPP
Described as above. Particulars: for IC50: In vitro polymerase, LVDr L180M + M204V. The format is biochemical.
Description: as §1, §2, §3

Experiment [6] has as its target T6, LVDr + T184G + S202I HBV polymerase (Hepatitis B virus genotype D subtype ayw, UniProt P03156, L515M/M539V/S537I/T519G).
T6 construct: intracellular HBV nucleocapsids were isolated from HBV transfected HepG2 cells and used in endogenous polymerase assays; expressed in transfected cells; host or cells: HepG2 cells transfected with an HBV expression plasmid
Described as above. The format is biochemical. Particulars: for IC50: In vitro polymerase.
Description: as §1, §2, §3

The test system of experiment [7] is singly M250V substituted HBV. Kind of experiment: HBV cell culture susceptibility (HBV-transfected HepG2 cells). In kind it is cell-based, hepatitis B virus. An excerpt:
The M250V substituted HBV RT in the absence of LVDr changes was constructed and tested for susceptibility to LVD, an obligate chain terminator which should not be impacted by the mechanism that could potentially affect ETV chain termination.
(§4) HepG2 human hepatoma cells (American Type Culture Collection) were maintained as described. The laboratory clone of HBV was the genotype D ayw serotype clone kindly provided by Dr. Steven Goff in the plasmid pCMV-HBV [41]. Plasmids expressing HBV RT with resistance substitutions were prepared using QuikChange® site-directed mutagenesis (Stratagene, LaJolla, CA).
(§5) HepG2 cell culture susceptibility assays were performed in cells transfected with HBV expression plasmids and cultured in the presence of a titration of antiviral compounds, as described in detail elsewhere. The levels of replicated, released HBV virions was measured at day five through immunocapture of detergent released nucleocapsids with anti-HBV core Ab and quantification of encapsidated HBV DNA [5]. Data were plotted as percent inhibition and EC50 values calculated as the drug concentration where 50% inhibition of extracellular HBV occurred.

The subject of a further experiment is Wildtype HBV. Described as above. In kind it is cell-based. Conditions: Hepatitis B virus, wildtype HBV in culture, read-out: LVD EC50. The protocol:
as §4, §5

Another experiment concerns HBV. Further details: method as in PMID 7601429. Conditions: read-out: cell culture EC50; cited from earlier work.
The subject of experiment [8] is HBV clones with ETVr signature substitutions in a LVDr background. Conditions: cited from earlier work.
The mark [9] stands for this setting: fold change from wildtype value, LVDr + T184L.
Setting [10] is: fold change from wildtype value, LVDr + S202G.
Setting [11] is: fold change from wildtype value, LVDr + M250V.
[12] abbreviates: fold change from wildtype value, Wildtype (WT).
Setting [13] is: fold change from wildtype value, LVDr M204V+L180M.
The mark [14] stands for this setting: fold change from wildtype value, LVDr + T184G + S202I.

T4 sequence (P03156 whole entry): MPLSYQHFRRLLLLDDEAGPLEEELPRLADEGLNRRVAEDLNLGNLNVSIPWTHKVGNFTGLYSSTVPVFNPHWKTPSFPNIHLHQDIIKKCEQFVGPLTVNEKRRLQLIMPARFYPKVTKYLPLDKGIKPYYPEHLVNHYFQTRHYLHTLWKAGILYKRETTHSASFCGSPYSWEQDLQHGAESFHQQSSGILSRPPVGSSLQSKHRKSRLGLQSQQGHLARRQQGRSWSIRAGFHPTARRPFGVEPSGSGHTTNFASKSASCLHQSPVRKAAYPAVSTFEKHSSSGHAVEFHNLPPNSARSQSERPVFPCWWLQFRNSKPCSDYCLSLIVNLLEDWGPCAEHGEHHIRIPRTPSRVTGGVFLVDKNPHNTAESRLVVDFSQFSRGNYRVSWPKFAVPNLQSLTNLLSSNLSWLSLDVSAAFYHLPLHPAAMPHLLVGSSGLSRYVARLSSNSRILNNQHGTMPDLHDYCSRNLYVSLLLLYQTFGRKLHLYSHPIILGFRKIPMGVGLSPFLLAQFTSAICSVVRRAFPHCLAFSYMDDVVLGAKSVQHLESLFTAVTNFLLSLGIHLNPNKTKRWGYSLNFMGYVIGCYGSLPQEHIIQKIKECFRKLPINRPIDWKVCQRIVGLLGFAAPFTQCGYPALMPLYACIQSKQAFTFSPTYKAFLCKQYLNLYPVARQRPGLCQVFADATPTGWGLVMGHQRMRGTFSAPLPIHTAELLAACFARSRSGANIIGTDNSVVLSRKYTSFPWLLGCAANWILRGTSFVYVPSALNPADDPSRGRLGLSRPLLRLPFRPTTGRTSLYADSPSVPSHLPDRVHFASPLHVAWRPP
T6 sequence (P03156 whole entry L515M/T519G/S537I/M539V): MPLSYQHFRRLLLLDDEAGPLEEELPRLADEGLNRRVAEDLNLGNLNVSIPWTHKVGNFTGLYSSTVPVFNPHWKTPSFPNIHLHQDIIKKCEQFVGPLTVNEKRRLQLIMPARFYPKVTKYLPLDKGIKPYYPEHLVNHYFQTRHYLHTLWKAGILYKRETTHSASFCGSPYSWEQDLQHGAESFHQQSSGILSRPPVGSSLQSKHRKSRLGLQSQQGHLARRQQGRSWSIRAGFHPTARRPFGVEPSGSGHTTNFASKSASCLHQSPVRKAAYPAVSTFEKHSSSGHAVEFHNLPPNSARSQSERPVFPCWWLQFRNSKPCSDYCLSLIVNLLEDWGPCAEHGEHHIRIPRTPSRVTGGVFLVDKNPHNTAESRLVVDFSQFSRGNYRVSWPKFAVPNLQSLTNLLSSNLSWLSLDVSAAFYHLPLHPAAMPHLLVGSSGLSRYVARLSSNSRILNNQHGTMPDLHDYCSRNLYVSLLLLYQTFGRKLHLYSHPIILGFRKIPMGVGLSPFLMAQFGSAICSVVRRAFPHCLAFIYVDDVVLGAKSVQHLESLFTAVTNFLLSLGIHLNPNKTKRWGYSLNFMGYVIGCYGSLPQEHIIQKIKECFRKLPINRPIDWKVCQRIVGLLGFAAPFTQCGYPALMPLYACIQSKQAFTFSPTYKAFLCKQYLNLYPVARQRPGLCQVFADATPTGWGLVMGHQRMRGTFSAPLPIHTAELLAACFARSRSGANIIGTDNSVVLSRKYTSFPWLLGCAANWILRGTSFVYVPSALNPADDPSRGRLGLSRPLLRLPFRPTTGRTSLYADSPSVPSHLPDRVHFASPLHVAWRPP
T3 sequence (P03156 whole entry L515M/M539V/M585V): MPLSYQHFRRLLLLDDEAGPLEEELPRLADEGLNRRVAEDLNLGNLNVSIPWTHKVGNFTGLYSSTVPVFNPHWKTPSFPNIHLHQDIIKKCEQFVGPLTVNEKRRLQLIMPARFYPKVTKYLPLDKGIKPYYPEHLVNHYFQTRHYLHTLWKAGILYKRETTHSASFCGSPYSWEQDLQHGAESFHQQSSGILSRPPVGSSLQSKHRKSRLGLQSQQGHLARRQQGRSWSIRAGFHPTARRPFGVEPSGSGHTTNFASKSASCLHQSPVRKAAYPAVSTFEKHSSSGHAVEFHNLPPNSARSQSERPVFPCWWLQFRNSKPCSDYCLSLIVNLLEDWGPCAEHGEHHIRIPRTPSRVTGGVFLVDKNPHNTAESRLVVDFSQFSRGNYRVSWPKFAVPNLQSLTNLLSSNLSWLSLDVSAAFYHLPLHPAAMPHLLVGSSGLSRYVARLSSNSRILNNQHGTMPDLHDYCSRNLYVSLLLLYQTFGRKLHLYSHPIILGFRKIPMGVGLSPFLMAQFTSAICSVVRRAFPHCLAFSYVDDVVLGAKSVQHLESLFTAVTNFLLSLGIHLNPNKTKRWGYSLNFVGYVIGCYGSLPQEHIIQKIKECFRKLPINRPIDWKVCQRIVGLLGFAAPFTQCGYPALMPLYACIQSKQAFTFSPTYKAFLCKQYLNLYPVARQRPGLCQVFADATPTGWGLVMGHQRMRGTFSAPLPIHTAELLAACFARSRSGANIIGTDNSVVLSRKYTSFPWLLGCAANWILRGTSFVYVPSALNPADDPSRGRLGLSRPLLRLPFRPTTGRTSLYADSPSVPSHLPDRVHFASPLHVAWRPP
T2 sequence (P03156 whole entry L515M/S537G/M539V): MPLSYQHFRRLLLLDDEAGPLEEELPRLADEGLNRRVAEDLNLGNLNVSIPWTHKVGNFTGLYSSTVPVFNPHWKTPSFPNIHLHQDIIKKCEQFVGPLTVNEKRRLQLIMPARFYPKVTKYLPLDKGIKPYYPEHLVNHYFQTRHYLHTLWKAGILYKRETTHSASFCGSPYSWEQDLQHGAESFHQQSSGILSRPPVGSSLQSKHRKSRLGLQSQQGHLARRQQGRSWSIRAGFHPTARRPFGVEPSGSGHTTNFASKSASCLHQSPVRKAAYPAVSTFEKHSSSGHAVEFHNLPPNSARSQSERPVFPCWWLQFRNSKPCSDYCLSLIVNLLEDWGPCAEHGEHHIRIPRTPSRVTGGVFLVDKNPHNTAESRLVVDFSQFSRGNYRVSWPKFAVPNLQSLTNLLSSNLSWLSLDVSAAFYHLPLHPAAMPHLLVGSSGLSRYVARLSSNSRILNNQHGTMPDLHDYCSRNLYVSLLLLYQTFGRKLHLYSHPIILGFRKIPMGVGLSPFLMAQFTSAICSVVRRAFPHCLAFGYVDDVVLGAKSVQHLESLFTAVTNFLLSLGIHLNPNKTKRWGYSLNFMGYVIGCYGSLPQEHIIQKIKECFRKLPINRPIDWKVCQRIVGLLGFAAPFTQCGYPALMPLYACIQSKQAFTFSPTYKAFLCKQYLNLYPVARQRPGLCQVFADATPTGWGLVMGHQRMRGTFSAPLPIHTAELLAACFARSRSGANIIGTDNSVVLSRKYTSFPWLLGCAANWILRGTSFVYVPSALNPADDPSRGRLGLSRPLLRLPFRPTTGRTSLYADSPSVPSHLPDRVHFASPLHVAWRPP

Broadly, the IC50 is the point on the concentration scale where inhibition reaches its midpoint. As a reminder, the Ki is a dissociation constant, usually derived from enzyme kinetics or from competition with a known ligand. In the case of `C=C1[C@H](COP(=O)(O)OP(=O)(O)OP(=O)(O)O)[C@@H](O)C[C@@H]1n1cnc2c(=O)[nH]c(N)nc21` [ETV-TP, ETV-triphosphate], in experiment [1] (ETVr enzymes), the “Ki/dGTP Km ratio, change from the wildtype” value is “more than 600 fold”. Moreover, in [1] (ETVr signature substitutions in a LVDr background, in vitro polymerase), the “level of ETVr in vitro” value was greater than 400 fold. Moreover, the Ki/Km in experiment [2] (ETV-TP Ki / dGTP Km ratio, LVDr + T184L) worked out at 118.2; in experiment [3] (ETV-TP Ki / dGTP Km ratio, LVDr + S202G) it was 69.9; in [4] (ETV-TP Ki / dGTP Km ratio, LVDr + M250V), 52.7; in experiment [5] (ETV-TP Ki / dGTP Km ratio, LVDr M204V+L180M), 3.5; in experiment [6] (ETV-TP Ki / dGTP Km ratio, LVDr + T184G + S202I), 221.6. Also, the IC50 in experiment [2] (In vitro polymerase, LVDr + T184L, read-out: ETV-TP IC50, Average ± SD (Range)) turned out to be 373 ± 143 nM; in experiment [3] (LVDr + S202G, read-out: ETV-TP IC50, Average ± SD (Range)), 258 ± 25.5 nM; in [4] (LVDr + M250V, read-out: ETV-TP IC50, Average ± SD (Range)) it was 229 ± 49.5 nM; at Wildtype HBV polymerase (In vitro polymerase, Wildtype, read-out: ETV-TP IC50, Average ± SD (Range)), 0.5 ± 0.1 nM; in experiment [5] (read-out: ETV-TP IC50, Average ± SD (Range)), 27.1 ± 5.6 nM; in experiment [6] (LVDr + T184G + S202I, read-out: ETV-TP IC50, Average ± SD (Range)) it was 636 ± 19 nM. Moreover, the Ki in experiment [2] (calculated with Cheng-Prusoff equation, LVDr + T184L polymerase, read-out: Ki (ETV-TP)) is 224 nM; in [3] (calculated with Cheng-Prusoff equation, LVDr + S202G polymerase, read-out: Ki (ETV-TP)), 147 nM; in [4] (calculated with Cheng-Prusoff equation, LVDr + M250V polymerase, read-out: Ki (ETV-TP)), 121 nM; at Wildtype HBV polymerase (calculated with Cheng-Prusoff equation, Wildtype (WT) polymerase, read-out: Ki (ETV-TP)), 0.4 nM; in experiment [5] (calculated with Cheng-Prusoff equation, LVDr M204V+L180M polymerase, read-out: Ki (ETV-TP)) it was 12.3 nM; in [6] (calculated with Cheng-Prusoff equation, LVDr + T184G + S202I polymerase, read-out: Ki (ETV-TP)), 155 nM. In addition, the “Ki (Fold WT)” value in experiment [2] (setting [9]) was 561.3 fold; in experiment [3] (setting [10]), 366.8 fold; in experiment [4] (setting [11]) it was 303.0 fold; at Wildtype HBV polymerase (setting [12]) it was 1 fold; in [5] (setting [13]), 30 fold and 30.8 fold; in [6] (setting [14]) it was 387.8 fold. The “Ki/Km (Fold WT)” value is reported as 1477.5 fold in [2] (setting [9]); 873.8 fold in [3] (setting [10]); 658.8 fold in [4] (setting [11]); 1 fold on Wildtype HBV polymerase (setting [12]); 43.8 fold in [5] (setting [13]); 2770.0 fold in experiment [6] (setting [14]).
In general, EC50 refers to the concentration needed to bring the measured effect to its halfway point. Consider `Nc1ccn([C@@H]2CS[C@H](CO)O2)c(=O)n1` [LVD, lamivudine], for which the EC50 in experiment [7] (Hepatitis B virus, HepG2, M250V HBV (no LVDr changes) in culture, read-out: LVD EC50) was 116 nM; in the experiment on Wildtype HBV, 794 nM. The “hypersensitivity to LVD in culture” value in experiment [7] ({}) was found to be 7 fold.
Take `O=C(O)P(=O)(O)O` [PFA, phosphonoformic acid]: in the experiment with HBV, the EC50 was roughly 5 mM.
As for `Nc1ncnc2c1ncn2CCOCP(=O)(O)O` [adefovir], the “susceptibility of ETVr HBV in cell culture” value in experiment [8] is recorded as “does not show reduced susceptibility”.
As a reminder, the Km is the substrate concentration at which the rate is half of its maximum. As to `Nc1nc2c(ncn2[C@H]2C[C@H](O)[C@@H](COP(=O)(O)OP(=O)(O)OP(=O)(O)O)O2)c(=O)[nH]1` [dGTP], the “change of dGTP Km by ETVr changes” value in [1] (ETVr enzymes except the quadruple-substituted RT) is reported as 2.2- to 2.6 fold. Besides, the Km in experiment [2] (apparent Km, LVDr + T184L polymerase, read-out: dGTP Km) came to 1.9 ± 0.6 nM; in experiment [3] (apparent Km, LVDr + S202G polymerase, read-out: dGTP Km), 2.1 ± 0.1 nM; in [4] (apparent Km, LVDr + M250V polymerase, read-out: dGTP Km), 2.3 ± 0.5 nM; at Wildtype HBV polymerase (apparent Km, Wildtype (WT) polymerase, read-out: dGTP Km) it was 5 ± 0.5 nM; in experiment [5] (apparent Km, LVDr M204V+L180M polymerase, read-out: dGTP Km), 3.5 ± 0.4 nM; in experiment [6] (apparent Km, LVDr + T184G + S202I polymerase, read-out: dGTP Km), 0.7 ± 0.1 nM. Also, the “dGTP Km (Fold WT)” value in [2] (setting [9]) was determined as 2.6 fold; in experiment [3] (setting [10]) it was 2.4 fold; in experiment [4] (setting [11]), 2.2 fold; at Wildtype HBV polymerase (setting [12]), 1 fold.
Regarding `Nc1nc2c(ncn2[C@H]2CC[C@@H](COP(=O)(O)OP(=O)(O)OP(=O)(O)O)O2)c(=O)[nH]1` [ddGTP, 2′,3′-dideoxyguanosine-5′-triphosphate], the “ddGTP IC50 of ETVr isolates relative to background” value in [1] (ETVr isolates, in vitro polymerase) is “approximately two-fold above background”. The IC50 in [3] (LVDr + S202G, read-out: ddGTP IC50, Average ± SD (Range)) is 125 ± 8.8 nM; in experiment [4] (LVDr + M250V, read-out: ddGTP IC50, Average ± SD (Range)) it was 154 ± 51.4 nM; at Wildtype HBV polymerase it was 87.6 nM; in experiment [5] (read-out: ddGTP IC50, Average ± SD (Range)), 138 ± 10 nM; in experiment [6] (LVDr + T184G + S202I, read-out: ddGTP IC50, Average ± SD (Range)), 188 ± 6.7 nM.
With `C[C@H](Cn1cnc2c(N)ncnc21)OCP(=O)(O)O` [tenofovir], in experiment [8], the “susceptibility of ETVr HBV in cell culture” value is “does not show reduced susceptibility”.
